Earlier results on two substances are cited in US8877808B2, “Protection against skin diseases by aurin tricarboxylic acid and its derivatives” (Aurin Biotech Inc., priority 2012, dated 2014).

This series has as its target C9 binding to C5b678 (Homo sapiens, UniProt P02748). Particulars: Lee et al. 2012a.

Chain of C9 binding to C5b678 (P02748 22-559): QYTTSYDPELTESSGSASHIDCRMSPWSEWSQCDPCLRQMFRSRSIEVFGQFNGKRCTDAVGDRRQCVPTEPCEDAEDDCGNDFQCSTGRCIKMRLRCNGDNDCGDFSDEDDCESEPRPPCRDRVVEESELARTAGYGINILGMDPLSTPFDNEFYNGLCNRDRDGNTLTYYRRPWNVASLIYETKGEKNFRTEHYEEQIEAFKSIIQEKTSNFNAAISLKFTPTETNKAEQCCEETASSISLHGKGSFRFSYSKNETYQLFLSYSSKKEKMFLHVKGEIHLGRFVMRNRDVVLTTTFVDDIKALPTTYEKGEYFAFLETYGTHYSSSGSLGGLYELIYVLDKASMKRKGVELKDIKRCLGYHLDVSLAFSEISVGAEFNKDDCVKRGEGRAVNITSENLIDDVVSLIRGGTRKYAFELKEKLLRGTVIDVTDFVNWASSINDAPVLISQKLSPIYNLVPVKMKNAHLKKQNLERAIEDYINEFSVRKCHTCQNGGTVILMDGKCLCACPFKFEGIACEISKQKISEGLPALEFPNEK

On to aurin hexacarboxylic acid [AHA], for which the “block of classical pathway at C9 binding to C5b678, formation of the MAC (C5b-9)” value is listed as “block classical pathway formation at the stage of C9 binding to C5b678”.

Consider aurin quadracarboxylic acid [AQA], for which the “block of classical pathway at C9 binding to C5b678, formation of the MAC (C5b-9)” value is listed as “block classical pathway formation at the stage of C9 binding to C5b678”.
